Source: PMC7059629 (Letters in drug design & discovery, 2019)

Legend:
Assay type in all cases: cell-based
[1] = target: rat mGlu2/4 heterodimer (Rattus norvegicus, UniProt P31421+P31423); test: mGlu2/4 heterodimer PAM thallium flux assay; details: for mGlu2/4 % Glu Max: ±SEM
[2] = target: rat mGlu2 (Rattus norvegicus, UniProt P31421); test: mGlu2 homodimer thallium flux assay; details: rat mGlu2-HEK293 cells, EC20 glutamate
[3] = target: homodimeric mGlu4 (Homo sapiens, UniProt Q14833); test: mGlu4 Gqi5 calcium assay
[4] = rat mGlu2/4-HEK293 cells, thallium flux, EC20 glutamate

Row | mGlu2/4 % Glu Max [1, 4] [% Glu Max] | EC50 [1] [µM] | EC50 [3] [µM] | Structure (SMILES) | mGlu2/4 pEC50 (±SEM) [1, 4] | mGlu2 pEC50 (±SEM) [2] | mGlu2 % Glu Max ([2]; ±SEM) [% Glu Max]
1 | 89 |  |  | NC(=O)[C@@H]1CCCC[C@@H]1C(=O)Nc1ccc(Cl)c(Cl)c1 [compound 5, Lu AF21934] |  |  | 
2 | 52.4±3.7 | 3.39 | > 30 | Cc1nc(-c2ccc(OCC(C)C)c(C#N)c2)sc1C(=O)O [compound 9, febuxostat] |  |  | 

Row | Structure (SMILES) | mGlu2/4 % Glu Max [1, 4] [% Glu Max] | EC50 [1] [µM] | EC50 [3] [µM] | mGlu2/4 pEC50 (±SEM) [1, 4] | mGlu2 pEC50 (±SEM) [2] | mGlu2 % Glu Max ([2]; ±SEM) [% Glu Max]
3 | Cc1nc(-c2ccc(OCC(C)C)c(C#N)c2)sc1C(=O)NC1CCOCC1 [11a, 2-(3-cyano-4-iosbutoxyphenyl)-4-methyl-N-(tetrahydro-2H-pyran-4-yl)thiazole-5-carboxamide] | 35±2 |  |  | 5.28±0.03 | 5.32±0.02 | 73±30
